“And” between values parts separate entries of the source, which are not always exact repeats. Equal values may be shown once.
Tested on: patients with prior myocardial infarction (CARE study)
Assay: CARE aligned analysis (prospective and case/control design, white males): association of genotypes with pravastatin efficacy (Tables 13, 15)
Type: in vivo, human
Protocol: The data presented in Table 8 based on an association of genotypes with pravastatin efficacy of the CARE samples were further analyzed and presented in Table 13. The further analysis was performed to align the data obtained from the analysis of the CARE samples, which was a prospective study, to the analysis of the WOSCOP samples, which was a case/control study. Table 13 also presents an analysis of the association of genotypes with pravastatin efficacy in the WOSCOPs samples. Relative to the analysis performed on the data presented in Table 8, there are two significant differences to determine if the SNP influenced pravastatin efficacy. Data obtained from the CARE samples were separated by study design into two groups, those in the prospective study design group and those in the case/control study design group. The original care study contained 16 protocol defined cardiovascular disease defined endpoints and 150 other phenotypes. […] The control groups used to compare the data were also divided into two groups, the “all possible” control group and the “cleaner” control group. […] Because the participants in the WOSCOPs trial were all white males, only data obtained from white males in the CARE study were analysed. Data from the “all possible” and “cleaner” controls were compared to data obtained from the cases in the prospective study design while only data from “cleaner” controls were compared to cases in the case/control study design. The data from the case/control cohorts were analysed using conditional logistic regression (as opposed to logistic regression used for the original anaylsis).
The anaylsis was refined as described for both Tables 13 and 14.

[1] = CD6 hCV2553030, CARE, Case/Control, F MI/SD/NF MI
[2] = CD6 hCV2553030, CARE, Prospective, F MI/SD/NF MI
[3] = CD6 hCV25922320, CARE, Case/Control, F MI/SD/NF MI
[4] = CD6 hCV25922320, CARE, Case/Control, F MI/SD/NF MI, listed as Pravastatin
[5] = CD6 hCV25922320, CARE, Prospective, F MI/SD/NF MI
[6] = CD163 hCV25591528, CARE Case/Control, F&NF MI
[7] = CD163 hCV25591528, CARE Prospective, F&NF MI, listed as Pravastatin
[8] = CD163 hCV25591528, CARE, Case/Control, F MI/SD/NF MI, listed as Pravastatin
[9] = CD163 hCV25591528, CARE, Prospective, F MI/SD/NF MI
[10] = COL2A1 hCV3276198, CARE Case/Control, F&NF MI
[11] = COL11A1 hCV8400671, CARE Case/Control, F&NF MI
[12] = CR1 hCV25598594, CARE Case/Control, F&NF MI
[13] = CR1 hCV25598594, CARE Prospective, F&NF MI
[14] = CR1 hCV25598594, CARE, Case/Control, F MI/SD/NF MI
[15] = CR1 hCV25598594, CARE, Prospective, F MI/SD/NF MI
[16] = CXCL16 hCV8718197, CARE Prospective, F&NF MI
[17] = CXCL16 hCV8718197, CARE, Case/Control, F MI/SD/NF MI
[18] = CXCL16 hCV8718197, CARE, Prospective, F MI/SD/NF MI
[19] = CYBA hCV2038, CARE Case/Control, F&NF MI
[20] = ELN hCV1253630, CARE, Case/Control, F MI/SD/NF MI
[21] = ELN hCV1253630, CARE, Prospective, F MI/SD/NF MI
[22] = F7 hCV783138, CARE Case/Control, F&NF MI

In the case of `CC[C@H](C)C(=O)O[C@H]1C[C@H](O)C=C2C=C[C@H](C)[C@H](CC[C@@H](O)C[C@@H](O)CC(=O)O)[C@H]21` [pravastatin], the “Pravastatin vs placebo odds ratio, 2 rare alleles” value (CAPN10 hCV25614016, CARE, Prospective, F MI/SD/NF MI) is reported as 0.90 and 0.78, the “OR of fatal MI/sudden death/non-fatal MI in the presence of statin treatment” value (“OR of fatal MI/sudden death/non-fatal MI” below) (CARE, hCV2442143, 0 rare alleles) is reported as 0.42 and the “OR of fatal MI/sudden death/non-fatal MI” value (CARE, hCV2442143, one rare allele, not statistically significant) is reported as 0.78. For the same molecule, the “OR of fatal MI/sudden death/non-fatal MI” value (CARE, hCV2442143, two rare alleles, not statistically significant) was 1.16, the “2 Rare Alleles n/total, Pravastatin Patients” value (CD6 hCV2553030, CARE Case/Control, F&NF MI) was 2/91 and 2/63 and the “2 Rare Alleles n/total, Pravastatin Patients” value (CD6 hCV2553030, CARE Prospective, F&NF MI) was 2/92 and 2/64. The “Pravastatin vs placebo odds ratio, 0 rare alleles” value [1] was 0.97 and 0.92, the “Pravastatin vs placebo odds ratio, 1 rare allele” value [1] was 0.80 and 0.68 and the “Pravastatin vs placebo odds ratio, 2 rare alleles” value [1] was 0.06 and 0.04. For the same molecule, the “Pravastatin vs placebo odds ratio, 0 rare alleles” value [2] was 0.97 and 0.88, the “Pravastatin vs placebo odds ratio, 1 rare allele” value [2] was 0.81 and 0.72 and the “Pravastatin vs placebo odds ratio, 2 rare alleles” value [2] was 0.06 and 0.04. For the same molecule, the “2 rare alleles n/total (%), pravastatin patients” value (“2 rare alleles n/total (%)” below) [3] was “(17.9%)”, the “Pravastatin vs placebo odds ratio, 2 rare alleles” value [3] was 1.44 and the “Pravastatin vs placebo odds ratio, 0 rare alleles” value [4] was 0.57 and 0.49. For the same molecule, the “Pravastatin vs placebo odds ratio, 1 rare allele” value [4] was 1.39 and 1.36, the “Pravastatin vs placebo odds ratio, 2 rare alleles” value [4] was 1.09 and the “2 rare alleles n/total (%)” value [5] was “(17.9%)”. The “Pravastatin vs placebo odds ratio, 0 rare alleles” value [5] was 0.58 and 0.51, the “Pravastatin vs placebo odds ratio, 1 rare allele” value [5] was 1.39 and 1.27 and the “Pravastatin vs placebo odds ratio, 2 rare alleles” value [5] was 1.09 and 1.17. For the same molecule, the “2 Rare Alleles n/total, Pravastatin Patients” value [6] was 4/24 and 4/21, the “Pravastatin vs placebo odds ratio, 2 rare alleles” value [6] was 1.23 and 0.64 and the “Pravastatin vs placebo odds ratio, 2 rare alleles” value (CD163 hCV25591528, CARE Prospective, F&NF MI) was 0.59. For the same molecule, the “2 Rare Alleles n/total, Pravastatin Patients” value [7] was 4/25 and 4/21, the “Pravastatin vs placebo odds ratio, 2 rare alleles” value [7] was 1.14 and the “Pravastatin vs placebo odds ratio, 2 rare alleles” value (CD163 hCV25591528, CARE, Case/Control, F MI/SD/NF MI) was 0.99. For the same molecule, the “Pravastatin vs placebo odds ratio, 0 rare alleles” value [8] was 0.96 and 0.88, the “Pravastatin vs placebo odds ratio, 1 rare allele” value [8] was 0.29 and 0.27 and the “Pravastatin vs placebo odds ratio, 2 rare alleles” value [8] was 1.97. For the same molecule, the “Pravastatin vs placebo odds ratio, 0 rare alleles” value [9] was 0.97 and 0.86, the “Pravastatin vs placebo odds ratio, 1 rare allele” value [9] was 0.30 and 0.28 and the “Pravastatin vs placebo odds ratio, 2 rare alleles” value [9] was 0.88. For the same molecule, the “2 Rare Alleles (%), Pravastatin Patients” value [10] was “(35.0%)”, the “2 Rare Alleles n/total, Pravastatin Patients” value [10] was 7/20 and the “2 Rare Alleles (%), Pravastatin Patients” value [11] was “(1.9%)”. For the same molecule, the “2 Rare Alleles n/total, Pravastatin Patients” value [11] was 1/52, the “2 Rare Alleles (%), Pravastatin Patients” value [12] was “(0.0%)” and the “2 Rare Alleles n/total, Pravastatin Patients” value [12] was 0/0. The “2 Rare Alleles (%), Pravastatin Patients” value [13] was “(0.0%)”, the “2 Rare Alleles n/total, Pravastatin Patients” value [13] was 0/0 and the “Pravastatin vs placebo odds ratio, 0 rare alleles” value [14] was 0.86 and 0.78. The “Pravastatin vs placebo odds ratio, 1 rare allele” value [14] was 0.09 and 0.07, the “Pravastatin vs placebo odds ratio, 0 rare alleles” value [15] was 0.87 and 0.78 and the “Pravastatin vs placebo odds ratio, 1 rare allele” value [15] was 0.08 and 0.06. The “2 Rare Alleles n/total, Pravastatin Patients” value (CXCL16 hCV8718197, CARE Case/Control, F&NF MI) was 32/233 and 32/160, the “2 Rare Alleles (%), Pravastatin Patients” value [16] was “(19.8%)” and the “2 Rare Alleles n/total, Pravastatin Patients” value [16] was 32/237 and 32/162. The “2 rare alleles n/total (%)” value [17] was “(17.4%)”, the “Pravastatin vs placebo odds ratio, 0 rare alleles” value [17] was 0.38 and the “Pravastatin vs placebo odds ratio, 1 rare allele” value [17] was 0.91. For the same molecule, the “Pravastatin vs placebo odds ratio, 2 rare alleles” value [17] was 1.12, the “2 rare alleles n/total (%)” value [18] was “(17.2%)” and the “Pravastatin vs placebo odds ratio, 0 rare alleles” value [18] was 0.38. For the same molecule, the “Pravastatin vs placebo odds ratio, 1 rare allele” value [18] was 0.92, the “Pravastatin vs placebo odds ratio, 2 rare alleles” value [18] was 1.06 and the “2 Rare Alleles (%), Pravastatin Patients” value [19] was “(16.9%)”. The “2 Rare Alleles n/total, Pravastatin Patients” value [19] was 23/136, the “2 rare alleles n/total (%)” value [20] was “(18.3%)” and the “Pravastatin vs placebo odds ratio, 0 rare alleles” value [20] was 0.53. The “Pravastatin vs placebo odds ratio, 1 rare allele” value [20] was 0.70, the “Pravastatin vs placebo odds ratio, 2 rare alleles” value [20] was 1.64 and the “2 rare alleles n/total (%)” value [21] was “(18.2%)”. The “Pravastatin vs placebo odds ratio, 0 rare alleles” value [21] was 0.52, the “Pravastatin vs placebo odds ratio, 1 rare allele” value [21] was 0.71 and the “Pravastatin vs placebo odds ratio, 2 rare alleles” value [21] was 1.60. The “2 Rare Alleles n/total, Pravastatin Patients” value (ELN hCV1253830, CARE Case/Control, F&NF MI) was 28/204 and 28/133, the “2 Rare Alleles n/total, Pravastatin Patients” value (ELN hCV1253830, CARE Prospective, F&NF MI) was 28/208 and 28/136 and the “2 Rare Alleles (%), Pravastatin Patients” value [22] was “(7.7%)”. For the same molecule, the “2 Rare Alleles n/total, Pravastatin Patients” value [22] was 1/13 and 1/9 and the “2 Rare Alleles (%), Pravastatin Patients” value (F7 hCV783138, CARE Prospective, F&NF MI) was “(7.7%)”.

Source: patent US9932637B2, “Genetic polymorphisms associated with cardiovascular disorders and drug response, methods of detection and uses thereof” (CELERA CORPORATION, priority 2003, dated 2018)
